One compound from US20190076406A1, “METHODS AND COMPOSITIONS FOR TREATING CONDITIONS ASSOCIATED WITH ANGIOGENESIS USING A VASCULAR ADHESION PROTEIN-1 (VAP-1) INHIBITOR” (MASSACHUSETTS EYE & EAR INFIRMARY, priority 2007, published 2019) can be followed below.

Test [1] deals with laser-induced CNV in Brown-Norway rats. Description: Laser-induced CNV, lesion size in choroidal flatmounts. The test is classed as in vivo, rat. Conditions: 0.3 mg/kg BW daily i.p., mean±SEM. On the procedure: (§1) Brown-Norway rats were anesthetized with 0.2-0.3 ml of a 50:50 mixture of 100 mg/ml Ketamine and 20 mg/ml Xylazine. Pupils were dilated with 5.0% Phenylephrine and 0.8% Tropicamide. CNV was induced with a 532 nm laser (Oculight GLx, Iridex, Mountain View, Calif.). Six laser spots (150 mW, 100 μm, 100 msec) were placed in each eye using a slit-lamp delivery system and a cover glass as a contact lens. Production of a bubble at the time of laser confirmed the rupture of the Bruch's membrane.
(§2) To block VAP-1, a specific VAP-1 inhibitor, Compound II described above, was used (R-tech Ueno, Ltd., Tokyo, Japan). After laser injury, the inhibitor (0.3 mg/kg BW) was administered to the animals by daily i.p. injections. As a control, some animals received the same regimen for the vehicle solution alone.
One week or two weeks after laser injury and treatment with VAP-1 inhibitor or vehicle, the size of CNV lesions was quantified using choroidal flat mounts. Briefly, rats were anesthetized and perfused through the left ventricle with 20 ml PBS followed by 20 ml of 5 mg/ml fluorescein labeled dextran (FITC-dextran; MW=2×106, SIGMA) in 1% gelatin. The eyes were enucleated and fixed in 4% paraformaldehyde for 3 hours. The anterior segment and retina were removed from the eyecup. […] The average size of the CNV lesions was then determined and used for the evaluation.

For test [2] the test system is unchanged. Description: Macrophage (ED-1 positive cell) infiltration in CNV lesions. The note with it: 3 days after laser injury; vs vehicle; n=4, p<0.05. Type of test: in vivo, rat. As for the experimental part:
as §1, §2
At 1, 3, and 7 days after laser injury and treatment with either VAP-1 inhibitor or vehicle solution, animals were perfused with 200 ml of PBS/kg BW under deep anesthesia. […] The photographs of CNV lesions were taken, and the numbers of ED-1-positive cells were counted. To obtain a quantitative index of macrophage numbers in CNV lesions, an optical density plot of the selected area was generated by a histogram graphing tool in the Photoshop image analysis software (version 6.0; Adobe Systems, Mountain View, Calif.), as described in the literature (for example, Sakurai et al. (2003) IOVS 44: 3578-85). […]

Test [3] addresses T1, rat semicarbazide-sensitive amine oxidase (SSAO) (Rattus norvegicus, UniProt O08590).
T1 sequence (O08590 1-763): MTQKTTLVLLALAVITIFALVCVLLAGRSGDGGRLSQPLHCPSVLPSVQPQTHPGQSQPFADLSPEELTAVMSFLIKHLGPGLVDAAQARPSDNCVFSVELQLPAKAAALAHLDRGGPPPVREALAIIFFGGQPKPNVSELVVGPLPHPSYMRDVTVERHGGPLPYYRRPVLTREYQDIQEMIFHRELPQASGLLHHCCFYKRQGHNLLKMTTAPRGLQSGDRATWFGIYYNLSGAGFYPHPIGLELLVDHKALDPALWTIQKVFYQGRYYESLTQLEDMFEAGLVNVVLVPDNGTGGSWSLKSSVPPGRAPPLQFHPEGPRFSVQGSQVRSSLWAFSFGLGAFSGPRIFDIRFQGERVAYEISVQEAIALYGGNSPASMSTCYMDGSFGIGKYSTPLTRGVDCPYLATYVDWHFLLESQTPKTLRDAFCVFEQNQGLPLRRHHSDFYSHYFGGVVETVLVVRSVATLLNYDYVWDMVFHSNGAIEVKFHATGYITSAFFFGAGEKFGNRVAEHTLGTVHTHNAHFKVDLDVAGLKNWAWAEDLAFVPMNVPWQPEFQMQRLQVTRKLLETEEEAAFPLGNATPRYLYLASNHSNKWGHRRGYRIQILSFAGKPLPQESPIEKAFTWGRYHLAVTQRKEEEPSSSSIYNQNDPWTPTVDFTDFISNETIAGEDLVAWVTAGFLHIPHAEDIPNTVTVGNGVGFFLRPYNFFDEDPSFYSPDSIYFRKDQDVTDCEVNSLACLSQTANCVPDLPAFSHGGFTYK
Briefly: IC50 against rat SSAO. Type of test: biochemical.

Test [4] addresses T2, human semicarbazide-sensitive amine oxidase (SSAO) (Homo sapiens, UniProt Q16853).
T2 sequence (Q16853 1-763): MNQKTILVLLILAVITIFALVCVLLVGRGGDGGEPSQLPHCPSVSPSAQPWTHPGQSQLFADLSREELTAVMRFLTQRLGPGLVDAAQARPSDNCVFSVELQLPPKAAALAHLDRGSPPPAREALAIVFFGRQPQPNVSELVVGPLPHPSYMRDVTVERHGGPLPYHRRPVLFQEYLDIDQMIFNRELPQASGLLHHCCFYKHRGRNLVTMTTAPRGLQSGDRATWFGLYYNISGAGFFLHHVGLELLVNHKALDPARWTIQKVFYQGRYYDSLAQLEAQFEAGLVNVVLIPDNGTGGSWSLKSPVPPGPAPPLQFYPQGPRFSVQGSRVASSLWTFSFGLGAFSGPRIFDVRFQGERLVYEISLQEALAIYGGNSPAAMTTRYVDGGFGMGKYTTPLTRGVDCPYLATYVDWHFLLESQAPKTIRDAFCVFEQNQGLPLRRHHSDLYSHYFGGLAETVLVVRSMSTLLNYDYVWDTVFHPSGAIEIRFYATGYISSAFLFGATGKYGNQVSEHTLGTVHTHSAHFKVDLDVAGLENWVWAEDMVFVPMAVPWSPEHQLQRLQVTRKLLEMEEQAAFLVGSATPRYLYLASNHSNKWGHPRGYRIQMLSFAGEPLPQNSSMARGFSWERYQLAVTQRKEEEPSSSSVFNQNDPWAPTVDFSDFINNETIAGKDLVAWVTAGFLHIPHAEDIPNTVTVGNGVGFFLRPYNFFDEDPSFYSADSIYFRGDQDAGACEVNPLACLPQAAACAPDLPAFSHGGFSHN
Description: IC50 against human SSAO. Type of test: biochemical.

As for `CC(=O)Nc1nc(CCc2ccc(NC(=N)NN)cc2)c(Cc2ccc(S(C)(=O)=O)cc2)s1` [Compound II], the CNV size in test [1] (7 days after laser injury, n=7) was 14,536±2175 μm^2; in test [1] (fourteen days after laser injury, n=10 eyes, not significant vs vehicle (p=0.5)) it was 23,992±1437 μm^2. In addition, the “reduction of number of accumulated macrophages (ED-1 positive cells) in CNV lesions” value in test [2] came out at 41%. Also, the IC50 (as a rule, the concentration needed to halve the response being measured) in test [3] was 8 nM; in test [4], 7 nM.
